“And” between values parts separate entries of the source, which are not always exact repeats. Identical values can stand only once.
Key:
[1] = system: bovine brain tubulin; assay: Tubulin polymerization assay (turbidimetric, kit BK006); type: biochemical; conditions: read-out: Anti-Tubulin Activity IC50 ± SD (inhibition of tubulin polymerization)
Procedure: The assembly of purified bovine tubulin was monitored using a kit, BK006, purchased from Cytoskeleton Inc., (Denver, CO, USA). The assay was carried out in accordance with the manufacturer’s instructions using the standard assay conditions. Briefly, purified ([…]) in a buffer consisting of 80 mM PIPES (pH 6.9), 0.5 mM EGTA, 2 mM MgCl2, 1 mM GTP and 10% glycerol was incubated at 37 °C in the presence of either vehicle (2% (v/v) ddH2O), CA-4, benzotriazole compounds. Light was scattered proportionally to the concentration of polymerized microtubules in the assay. Therefore, the tubulin assembly was monitored turbidimetrically at 340 nm in a Spectramax 340 PC spectrophotometer (Molecular Devices, Sunnyvale, CA, USA). The concentration that inhibits tubulin polymerization by 50% (IC50) was determined using area under the curve (AUC). The AUC of the untreated controls were considered as 100% polymerization. The IC50 value for each compound was computed using GraphPad Prism Software.

[2] = system: HL-60 human leukemia cancer cell line; assay: MTT viability assay, HL-60; type: cell-based; conditions: Homo sapiens, HL-60, 72 h, mean ± SD of three independent experiments, read-out: Antiproliferative Activities IC50, HL-60
Procedure: (§1) All the human tumour cell lines MCF-7, HL-60, HCT-116, and HUVEC were cultured in Dulbecco’s Modified Eagle’s Medium (DMEM) with 10% fetal bovine serum, 2 mM L-glutamine and 100 µg/mL penicillin/streptomycin. Cells were maintained at 37 °C in 5% CO2 in a humidified incubator. All cells were sub-cultured three times/week by trypsinization using TrypLE Express (1X).
(§2) The Benzotriazole compounds were evaluated for antiproliferative effect using the MTT viability assay of various cancer cell lines (MCF-7, HCT-116 and HL-60) and the normal human umbilical vein endothelial cell line (HUVEC) to calculate the relative IC50 values for each compound. Cells were seeded in triplicate in 96-well plates at a density of 10 × 10^3 cells/mL in a total volume of 200 µL per well. 0.1% of DMSO was used as a vehicle control. After this time, they were treated with 2 µL test compound which had been pre-prepared as stock solutions in ethanol to furnish the concentration range of study, 10 nM to 100 µM, and re-incubated for a further 72 h. The culture medium was then removed, and the cells washed with 100 µL phosphate buffered saline (PBS) and 50 µL MTT added, to reach a final concentration of 1 mg/mL MTT added. Cells were incubated for 2 h in darkness at 37 °C. At this point solubilisation was begun through the addition of […] DMSO and the cells maintained at room temperature in darkness for 20 min to ensure thorough colour diffusion before reading the absorbance. Plates were incubated for 72 h at 37 °C + 5% CO2. The MTT (5 mg/mL in PBS) was added and incubated for another 4 h, and the optical density was detected with a microplate reader at 570 nm. Results were expressed as percentage viability relative to vehicle control (100%). Dose response curves were plotted and IC50 values (concentration of drug resulting in 50% reduction in cell survival) were obtained using the commercial software package Prism (GraphPad Software, Inc., La Jolla, CA, USA). All the experiments were repeated in at least three independent experiments.

[3] = system: HL-60 cells; assay: Cell cycle analysis by PI flow cytometry; type: cell-based, human; conditions: 50 nM
Procedure: HL-60 cells were seeded at a density of 1 × 10^5 cells/well in 6-well plates and treated with CA-4 and compound BI9 (1 µM) for 48 and 72 h. The cells were collected by trypsinization and centrifuged at 800× g for 15 min. Cells were washed twice with ice-cold PBS and fixed in ice-cold 70% ethanol overnight at −20 °C. Fixed cells were centrifuged at 800× g for 15 min and stained with 50 μg/mL of PI, containing 50 μg/mL of DNase-free RNase A, at 37 °C for 30 min. The DNA content of cells (10,000 cells/experimental group) was analysed by flow cytometer at 488 nm using a FACSCalibur flow cytometer (BD Biosciences, San Jose, CA, USA) and all data were recorded and analysed using the CellQuest Software (Becton-Dickinson).

[4] = system: HL-60 cells; assay: Annexin V/PI apoptotic assay by flow cytometry; type: cell-based, human; conditions: BI9 1 µM, CA-4 concentration not given, control 1.6%
Procedure: Apoptotic cell death was detected by flow cytometry using Annexin V and propidium iodide (PI). HL-60 Cells were seeded in 6 well plated at density of 1 × 10^5 cells/mL and treated with vehicle (0.1% (v/v) EtOH), positive control (CA-4) or compound BI9 (1 µM) for 48 and 72 h. Cells were then harvested and prepared for flow cytometric analysis. Cells were washed in 1X binding buffer ([…] binding buffer: 0.1M HEPES, pH 7.4; 1.4 M NaCl; 25 mM CaCl2 diluted in dH2O) and incubated in the dark for 30 min on ice in Annexin V-containing binding buffer [1:100]. Cells were then washed once in binding buffer and then re-suspended in PI-containing binding buffer [1:1000]. Samples were analysed immediately using the BD accuri flow cytometer and prism software for analysis the data. Four populations are produced during the assay Annexin V and PI negative (Q4, healthy cells), Annexin V positive and PI negative (Q3, early apoptosis), Annexin V and PI positive (Q2, late apoptosis) and Annexin V negative and PI positive (Q1, necrosis).

[5] = system: HUVEC human umbilical vein endothelial cell line; assay: MTT viability assay, normal HUVEC cells; type: cell-based; conditions: 72 h, mean ± SD of three independent experiments
Procedure: as §1, §2

[6] = system: MCF-7 human breast cancer cell line; assay: MTT viability assay, MCF-7; type: cell-based; conditions: Homo sapiens, MCF7, 72 h, mean ± SD of three independent experiments, read-out: Antiproliferative Activities IC50, MCF-7
Procedure: as §1, §2

[7] = system: colchicine binding site of tubulin; assay: Colchicine site competitive binding assay ([3H]colchicine); conditions: tubulin and colchicine at 1 and 5 µM
Procedure: The affinity of Benzotriazole compounds to colchicine binding site was determined using a Colchicine Site Competitive Assay kit CytoDYNAMIX Screen15 (Cytoskeleton, Inc., Denver, CO, USA) using the standard protocol of the manufacturer to determine Ki values (μM). Biotin-labelled tubulin ([…]) and the test compounds (positive control colchicine, negative control vinblastine, G-1, fluorescent G-1, or 2-ME) in a 96-well plate (final volume: 100 μL). After incubating for 2 h at 37 °C with gentle shaking, streptavidin-labelled yttrium SPA beads (80 μg in 20 μL reaction buffer, PerkinElmer, Waltham, MA) were added to each well and incubated for 30 min at 4 °C. The plates were then read on a scintillation counter (Packard Instrument, Topcount Microplate Reader) and the percentage of inhibition was calculated.

[8] = system: HCT-116 human colon cancer cell line; assay: MTT viability assay, HCT-116; type: cell-based; conditions: Homo sapiens, HCT-116, 72 h, mean ± SD of three independent experiments, read-out: Antiproliferative Activities IC50, HCT-116
Procedure: as §1, §2

## COc1ccc(/C=C\c2cc(OC)c(OC)c(OC)c2)cc1O [CA-4, Combretastatin A-4, reference compound]
[1]
  IC50: […]
[2]
  IC50: 0.77 ± 0.05 µM
[3]; 48 h
  Proportion of HL-60 cells in G2/M phase: 40.1%
[3]; 72 h
  Proportion of HL-60 cells in G2/M phase: 46.6%
[4]; 48 h
  Total fraction of early and late apoptotic cells (Annexin V positive): 18.7%
[4]; 72 h
  Average fraction of Annexin V-staining positive cells (total apoptotic cells): 23.7%
[5]
  IC50: 13.6 ± 0.65 µM
[6]
  IC50: […]
[7]; 1 µM drug
  Colchicine Binding % ± SD (inhibition of [3H]colchicine binding), 1 µM Drug: 64% and 64.23 ± 0.9%
[7]; 5 µM drug
  Colchicine Binding % ± SD (inhibition of [3H]colchicine binding), 5 µM Drug: 85% and 85.63 ± 2%
[8]
  IC50: 0.24 ± 0.02 µM

Reference: paper PMC8512560, “Design, Synthesis, and Antipoliferative Activities of Novel Substituted Imidazole-Thione Linked Benzotriazole Derivatives” (Molecules, 2021)
